{
  "source": "patent US11484513B2",
  "about": "“Salbutamol-containing ophthalmic medicament” (priority 2016, dated 2022)",
  "key": {"Vitreous hemorrhage": {"test_system": "Vitreous hemorrhage", "assay": "Clinical observation in vitreous hemorrhage", "assay_type": "in vivo, human", "settings": "many cases", "from_the_text": "(§1) The invention will be illustrated further by the description of clinical examples, which of course are not limiting in nature. The medicament was administrated orally, topically in the form of eye drops or by intraocular injection especially intravitreal injection, unless indicated differently."}, "Glaucoma": {"test_system": "Glaucoma", "assay": "Clinical observation in glaucoma patients", "assay_type": "in vivo, human", "settings": "patients with known glaucoma, pooled (Salbutamol alone or associated)", "description": "as §1\nPatients with known glaucoma experienced a decrease in their ocular tension, and an improvement of their visual acuity and visual field once they are treated with Salbutamol or salbutamol associated with one or more of these: N Acetyl DL Leucine, glucose, magnesium, aldosterone receptor antagonist (eplerenone), angiotensin converting enzyme inhibitor (Ramiprilat), β1 blocker and anhydrase carbonic inhibitor."}, "[1]": {"test_system": "Allergic conjunctivitis and blepharitis", "assay": "Clinical observation in allergic conjunctivitis and blepharitis patients", "assay_type": "in vivo, human", "settings": "5 patients, eye drops", "from_the_text": "as §1"}, "Myopia": {"test_system": "Myopia", "assay": "Clinical observation in myopia patients", "assay_type": "in vivo, human", "settings": "12 myopia patients, eye drops", "description": "as §1\n(§2) According to particular embodiments where topical administration using eye drops is carried out, the dosages, posologies, administration regimen of the administered active principles are as described in the particular embodiments disclosed in the detailed description, i.e., Salbutamol is administered topically in a concentration of 0.1% (w/v), and/or Ramiprilate is administered topically in a concentration of 2% (w/v), and/or eplerenone is administered topically in a concentration of 1% (w/v), and/or N Acetyl DL Leucine is administered topically in a concentration of 1% (w/v), the active principle(s) being administered once or twice or three times, and up to four times a day, during 1, 2 or 3 months, or more, unless specified differently.\nThis invention relates to the manufacture of an eye protective medicament, namely Salbutamol via general route or topical route (eye drops) for improving vision.\n12 patients were evaluated and received salbutamol in the form of eye drops.\nResults: in the addition to the improvement of their visual acuity, the refractive value was reduced. […]"}, "Dry eye": {"test_system": "Dry eye", "assay": "Clinical observation in dry eye patients", "assay_type": "in vivo, human", "settings": "7 patients, eye drops", "from_the_text": "as §1"}, "[2]": {"test_system": "Age related macular degeneration", "assay": "Clinical observation in age related macular degeneration patients (visual acuity, OCT, fluoro-angiography)", "assay_type": "in vivo, human", "description": "as §1, §2\nThe structural information provided by O.C.T is becoming a valuable diagnostic adjunct to fluorescein angiography. OCT is a valuable tool for probing the effect of these treatments.\n15 patients were treated with salbutamol or salbutamol associated with one or more of these: aldosterone receptor antagonist, ACEI (angiotensin converting enzyme inhibitor), N Acetyl DL Leucine, magnesium and serrapeptase (Eye drops; tablets; intra ocular injection).\nPatient three presented with a history of decreased vision in the right eye. […] Prior to receiving Salbutamol treatment an OCT scan was taken, which is shown in (FIG. 06).\nThen we prescribe topically Salbutamol eye drops 0.1% (w/v), Ramiprilat eye drops 2% (W/v), Eplerenone eye drops 1% (w/v). N Acetyl DL Leucine eye drops 1% (w/v) association three times a day.\nPatient two presented with a six months history of decreased vision in the right eye.\nThey were treated with Salbutamol eye drops 0.1% (w/v). Three months later visual acuity improved."}, "Astigmatism": {"test_system": "Astigmatism", "assay": "Clinical observation in astigmatism subjects", "assay_type": "in vivo, human", "from_the_text": "The invention will be illustrated further by the description of clinical examples, which of course are not limiting in nature. The medicament was administrated orally, topically in the form of eye drops or by intraocular injection especially intravitreal injection, unless indicated differently. This invention relates to the manufacture of an eye protective medicament, namely Salbutamol via general route or topical route (eye drops) for improving vision. More particularly, but not exclusively, it relates to eye drops comprising Salbutamol, which are intended for improving (i.e., in the present case decreasing the effects of presbyopia, myopia, hypermetropia and astigmatism) and for stabilizing them or even reversing their evolutive course thereof. The astigmatism subjects noticed an improvement of their refraction and visual acuity."}, "Keratoconus": {"test_system": "Keratoconus", "assay": "Clinical observation in keratoconus patients", "assay_type": "in vivo, human", "settings": "02 keratoconus patients", "from_the_text": "as §1, with “differently. 02 patients received Salbutamol, they noticed an improvement of visual acuity and a reduced irregular astigmatism.” for “differently.”"}, "Pigmentosa retinitis": {"test_system": "Pigmentosa retinitis", "assay": "Clinical observation in pigmentosa retinitis patients", "assay_type": "in vivo, human", "from_the_text": "as §1"}, "Corneal oedema": {"test_system": "Corneal oedema", "assay": "Clinical observation in corneal oedema patients", "assay_type": "in vivo, human", "settings": "10 patients", "from_the_text": "as §1"}, "Stargardt's disease": {"test_system": "Stargardt's disease", "assay": "Clinical observation in Stargardt's disease patients", "assay_type": "in vivo, human", "settings": "8 patients", "from_the_text": "as §1\n8 patients treated with Salbutamol noticed an improvement of their visual acuity.\nIf we associate to Salbutamol one or more of these: N Acetyl DL Leucine, nitric monoxide donor (vitamin C, vitamin B9), Ramiprilat, and aldosterone receptor antagonist; improvement is noted."}, "Diabetic retinopathy": {"test_system": "Diabetic retinopathy", "assay": "Clinical observation in diabetic retinopathy patients (visual acuity, OCT)", "assay_type": "in vivo, human", "description": "as §1, §2\nCurrently, one examination technique is very useful in evaluating diabetic; that's optical coherence tomography (O.C.T).\nOCT is very sensitive in evaluating diabetic macular oedema, central macular thickness correlates with visual acuity.\nThe response of macular oedema to the administration of one drug such as Salbutamol or a medicament associating Salbutamol, angiotensin converting enzyme inhibitor, antagonist of aldosterone receptor and N Acetyl DL Leucine can be documented accurately by O.C.T imaging.\nDiabetic patients were treated with these medicaments given topically,\nThe following study was undertaken on several patients having non-proliferative diabetic; retinopathy or proliferative diabetic retinopathy.\n20 patients were treated with either Salbutamol or salbutamol associated with one or more of these: ACEI (angiotensin converting enzyme inhibitor), aldosterone receptor antagonist, N Acetyl DL Leucine, magnesium and serrapeptase (eye drops; tablets; intra ocular injection especially intra vitreal injection). […]"}, "Uveitis": {"test_system": "Uveitis", "assay": "Clinical observation in uveitis cases (visual acuity, OCT)", "assay_type": "in vivo, human", "settings": "10 cases of uveitis pooled (salbutamol alone or associated)", "description": "as §1, §2\nIn 10 cases of uveitis; salbutamol alone or associated with one or more of these: non-steroidal anti inflammatory drugs, angiotensin converting enzyme inhibitors, aldosterone receptors antagonist, β1 blocker, anhydrase carbonic inhibitor, magnesium, corticosteroids and serrapeptase reduced inflammatory disorders. […]"}, "[3]": {"test_system": "Age related physiological vision decline", "assay": "Clinical observation in age related physiological vision decline", "assay_type": "in vivo, human", "settings": "many cases, absence of any ocular pathology", "from_the_text": "as §1"}, "Presbyopia": {"test_system": "Presbyopia", "assay": "Clinical observation in presbyopia patients", "assay_type": "in vivo, human", "settings": "08 patients, eye drops", "description": "as §1, §2\n08 patients received Salbutamol in the form of eye drops and experimented an improvement of their near vision and a decrease in presbyopia. […] Salbutamol has proven to be an effective treatment of presbyopia."}, "Cataract": {"test_system": "Cataract", "assay": "Clinical observation in cataract", "assay_type": "in vivo, human", "settings": "under salbutamol", "from_the_text": "as §1"}, "Periretinal fibrosis": {"test_system": "Periretinal fibrosis", "assay": "Clinical observation in periretinal fibrosis", "settings": "human, in vivo", "from_the_text": "as §1\n13) Periretinal fibrosis: is reduced after Salbutamol treatment."}, "Vitreo macular traction": {"test_system": "Vitreo macular traction", "assay": "Clinical observation in vitreo macular traction / proliferative diabetic retinopathy (vitreolysis)", "assay_type": "in vivo, human", "from_the_text": "as §1\nIn many cases of proliferative diabetic retinopathy including fibrovascular proliferation, retinal detachment, vitreo macular traction, the intravitreal injection of Salbutamol led to induction of posterior vitreous detachment, easier peeling and removal of epiretinal fibrotic membrane and internal limiting membrane particularly in macular hole pathology."}, "[4]": {"settings": "15 patients pooled (salbutamol alone or associated), eye drops, tablets, intra ocular injection"}, "[5]": {"settings": "patient two, right eye, Salbutamol eye drops 0.1% (w/v), three months later"}, "[6]": {"settings": "20 patients pooled (Salbutamol alone or associated), eye drops, tablets, intra ocular injection"}},
  "data": [
    {"smiles": "CC(C)(C)NCC(O)c1ccc(O)c(CO)c1", "note": "(stereo not shown) [Salbutamol]", "values": [
      {"measurement": "vitreous hemorrhage", "setting": "Vitreous hemorrhage", "value": "decreased"},
      {"measurement": "ocular tension", "setting": "Glaucoma", "value": "decrease"},
      {"measurement": "visual acuity", "setting": "Glaucoma", "value": "improvement"},
      {"measurement": "visual field", "setting": "Glaucoma", "value": "improvement"},
      {"measurement": "allergic conjunctivitis and blepharitis", "setting": "[1]", "value": "improved"},
      {"measurement": "refractive value", "setting": "Myopia", "value": "reduced"},
      {"measurement": "visual acuity", "setting": "Myopia", "value": "improvement"},
      {"measurement": "dry eye", "setting": "Dry eye", "value": "improved"},
      {"measurement": "O.C.T", "setting": "[2]; [4]", "value": "improvement"},
      {"measurement": "visual acuity", "setting": "[2]; [4]", "value": "improvement"},
      {"measurement": "macular thickening", "setting": "[2]; eye drops given topically instead of intraocular anti VEGF injection", "value": "regression"},
      {"measurement": "successive OCT controls", "setting": "[2]; patient three, first round of treatment (Salbutamol)", "value": "more improvement but no complete recovery"},
      {"measurement": "macular thickening", "setting": "[2]; patient three, right eye, occult CNV, three months after Salbutamol treatment", "value": "incomplete regression"},
      {"measurement": "macular thickening (OCT)", "setting": "[2]; [5]", "value": "incomplete regression"},
      {"measurement": "visual acuity", "setting": "[2]; [5]", "value": "improved"},
      {"measurement": "refraction", "setting": "Astigmatism", "value": "improvement"},
      {"measurement": "visual acuity", "setting": "Astigmatism", "value": "improvement"},
      {"measurement": "irregular astigmatism", "setting": "Keratoconus", "value": "reduced"},
      {"measurement": "visual acuity", "setting": "Keratoconus", "value": "improvement"},
      {"measurement": "visual acuity", "setting": "Pigmentosa retinitis; 9 patients, all of them", "value": "improvement"},
      {"measurement": "visual field", "setting": "Pigmentosa retinitis; 9 patients, all of them", "value": "improvement"},
      {"measurement": "visual function", "setting": "Pigmentosa retinitis; pigmentosa retinitis", "value": "improvement"},
      {"measurement": "oedema", "setting": "Corneal oedema", "value": "decreased"},
      {"measurement": "vision", "setting": "Corneal oedema", "value": "improve"},
      {"measurement": "visual acuity", "setting": "Stargardt's disease", "value": "improvement"},
      {"measurement": "retinopathy", "setting": "Diabetic retinopathy; [6]", "value": "improves"},
      {"measurement": "visual acuity", "setting": "Diabetic retinopathy; [6]", "value": "improves"},
      {"measurement": "total macular volume (OCT)", "setting": "Diabetic retinopathy; patient one, eye drops 0.1% (w/v), two months after treatment", "value": "decreased"},
      {"measurement": "inflammatory disorders", "setting": "Uveitis", "value": "reduced"},
      {"measurement": "visual function", "setting": "[3]", "value": "improved"},
      {"measurement": "near vision", "setting": "Presbyopia", "value": "improvement"},
      {"measurement": "need to wear a correction of the near vision", "setting": "Presbyopia", "value": "Some of them did not need any longer"},
      {"measurement": "presbyopia", "setting": "Presbyopia", "value": "decrease"},
      {"measurement": "improvement of cataract", "setting": "Cataract", "value": "Some improvement"},
      {"measurement": "periretinal fibrosis", "setting": "Periretinal fibrosis", "value": "reduced"},
      {"measurement": "effect on the retina", "setting": "Vitreo macular traction; during vitreolysis", "value": "without adversely affecting the retina"},
      {"measurement": "proteolytic activity", "setting": "Vitreo macular traction; human, in vivo", "value": "seems to have a proteolytic activity"},
      {"measurement": "vitreolysis", "setting": "Vitreo macular traction; human, in vivo", "value": "promotes a vitreolysis inducing both synchesis and synerisis"},
      {"measurement": "posterior vitreous detachment", "setting": "Vitreo macular traction; intravitreal injection, many cases of proliferative diabetic retinopathy incl. vitreo macular traction", "value": "induction"},
      {"measurement": "peeling and removal of epiretinal fibrotic membrane and internal limiting membrane", "setting": "Vitreo macular traction; intravitreal injection, many cases of proliferative diabetic retinopathy, particularly macular hole pathology", "value": "easier"}
    ]}
  ]
}
